The values that follow come from patent US20070073056A1, “4-Substituted Pyrazoline Compounds, their Preparation and Use as Medicaments” (LABORATORIOS DEL DR. ESTEVE, S.A., priority 2005, published 2007).

This test addresses CB1-receptor (UniProt P20272). The experiment in a line: binding of the pyrazoline compounds to CB1-receptors (Pharmacological Methods, Part I). Also on record: other: 10^−7 M; other: 10^−8 M; species or system human or rat. As for the experimental part: I. In-vitro Determination of Affinity to CB1/CB2-Receptors
The in-vitro determination of the affinity of the inventive 4-substituted pyrazoline compounds to CB1/CB2-Rezeptors is carried out as described in the publication of Ruth A. Ross, Heather C. Brockie et al., “Agonist-inverse agonist characterisation at CB1 and CB2 cannabinoid receptors of L-759633, L759656 and AM630”, British Journal of Pharmacology, 126, 665-672, (1999), whereby the transfected human CB1 and CB2 receptors of Receptor Biology, Inc. are used. The radioligand used for both receptors is [^3H]-CP55940. The respective parts of the description is hereby incorporated by reference and forms part of the present disclosure.
Rat Cerebellum CB1 Binding
Binding affinity to CB1 receptor was evaluated according to a modification of the method described by Govaerts et al., Eur J Pharmac Sci 23, 233-243 (2004). The respective parts of the description is hereby incorporated by reference and forms part of the present disclosure.
Briefly, cerebellum from male wistar rats (250-300 g) were carefully dissected on ice and homogenates were prepared with Potter-Helveheim in a cold 50 mM Tris-HCl solution containing 5 mM MgCl2, 1 mM EDTA and 0.25 M sucrose, pH 7.4. The suspension was centrifuged at […] for 5 minutes. The supernatants were collected and centrifuged 50,000×g for 15 minutes. The resulting pellets were then resuspended in Tris-HCl buffer without sucrose, homogenized and incubated for 15 min at 37° C. in an orbital shaker bath and centrifuged again at 50,000×g for 15 min. Pellets were weighted, resuspended in Tris-HCl buffer without sucrose, homogenized with Ultraturrax at 13,500 rpm for 3×5 seconds and alicuoted in 0.9 ml volumes in Eppendorf tubes. Alicuotes were centrifuged at 20,800×g for 5 minutes, supernatants discarded and pellets were frozen at −80° C. until use. Total protein concentration was determined using the Bio-Rad Lowry method based kit. Competitive binding experiments were performed in presence of 1 nM [^3H]-CP 55,940 in siliconized glass tubes containing 100 μg protein/tube resuspended in 1 ml final volume of 50 mM Tris-HCl, 5 mM MgCl2, 1 mM EDTA, 0.5% (w/v) bovine serum albumin, pH 7.4. Compounds were present at various concentrations and the non specific binding was determined in the presence of 10 μM HU-210. After 1 hour incubation at 30° C., the suspension was rapidly filtered through 0.5% PEI pre-treated GF/B fiber filters on a 96-well harvester and washed 3 times with 3 ml ice-cold binding buffer without bovine serum albumin. Radioactivity on filters was measured with Wallac Winspectral 1414 counter by liquid scintillation in 6 ml Ecoscint H (National Diagnostics, U.K.). Assays were made in triplicates.
Binding data were analyzed by non-linear regression with the software GraphPad Prism Version 3.03.
The binding of the pyrazoline compounds of general formula I to CB1-receptors was determined according to the method described in the section Pharmacological Methods, Part I.

Take `COC[C@H]1CCCN1NC(=O)C1=NN(c2ccc(Cl)cc2Cl)[C@H](c2ccc(Cl)cc2)[C@@H]1C.Cl` (mixture of isomers) [Example 106, cis-5-(4-chlorophenyl)-1-(2,4-dichlorophenyl)-N-((R)-2-(methoxymethyl)pyrrolidin-1-yl)-4-methyl-4,5-dihydro-1H-pyrazole-3-carboxamide hydrochloride]: the Inhibition worked out at 39% (10^−7 M) and 20.4 (10^−8 M, in %).
As to `COC[C@@H]1CCCN1NC(=O)C1=NN(c2ccc(Cl)cc2Cl)[C@H](c2ccc(Cl)cc2)[C@@H]1C.Cl` (mixture of isomers) [Example 107, cis-5-(4-chlorophenyl)-1-(2,4-dichlorophenyl)-N-((S)-2-(methoxymethyl)pyrrolidin-1-yl)-4-methyl-4,5-dihydro-1H-pyrazole-3-carboxamide hydrochloride], the Inhibition is on record as 43.9% (10^−7 M) and 2.7 (10^−8 M, in %).
`C[C@@H]1C(C(=O)N[C@H]2CCCC[C@@H]2O)=NN(c2ccc(Cl)cc2Cl)[C@@H]1c1ccc(Cl)cc1` (mixture of isomers) [Example 128, (+)-cis-5-(4-chlorophenyl)-1-(2,4-dichlorophenyl)-N-((1S,2S)-2-hydroxycyclohexyl)-4-methyl-4,5-dihydro-1H-pyrazole-3-carboxamide]: the Inhibition by setting is: (10^−7 M) 35.3%; (10^−8 M, in %) 18.0.
On to `COc1ccc([C@@H]2[C@H](C)C(C(=O)N[C@H]3CCCC[C@@H]3O)=NN2c2ccc(Cl)cc2Cl)cc1` (mixture of isomers) [Example 281, (+)-cis-1-(2,4-dichlorophenyl)-N-((1S,2S)-2-hydroxycyclohexyl)-5-(4-methoxyphenyl)-4-methyl-4,5-dihydro-1H-pyrazole-3-carboxamide], for which the Inhibition was determined as 39.0% (10^−7 M) and 10.2 (10^−8 M, in %).
As to `COc1ccc([C@@H]2[C@H](C)C(C(=O)N[C@H]3CCCC[C@@H]3O)=NN2c2ccc(Cl)cc2Cl)cc1` (mixture of isomers) [Example 282, (−)-cis-1-(2,4-dichlorophenyl)-N-((1S,2S)-2-hydroxycyclohexyl)-5-(4-methoxyphenyl)-4-methyl-4,5-dihydro-1H-pyrazole-3-carboxamide], the Inhibition is given as 44.3% (10^−7 M) and 9.6 (10^−8 M, in %).
On the same counts, the results for `C[C@@H]1C(C(=O)N[C@H]2CCCC[C@@H]2OCc2ccccc2)=NN(c2ccc(Cl)cc2Cl)[C@@H]1c1ccc(Cl)cc1` (mixture of isomers) [Example 409, (+)-cis-N-((1S,2S)-2-(benzyloxy)cyclohexyl)-5-(4-chlorophenyl)-1-(2,4-dichlorophenyl)-4-methyl-4,5-dihydro-1H-pyrazole-3-carboxamide] are −5.8% and −37.
On the same counts, the results for `C[C@@H]1C(C(=O)N[C@H]2C[C@H]3CC[C@]2(C)C3(C)C)=NN(c2ccc(Cl)cc2Cl)[C@@H]1c1ccc(Cl)cc1` (mixture of isomers) [Example 422, cis-5-(4-chlorophenyl)-1-(2,4-dichlorophenyl)-4-methyl-N-((1R,2S,4R)-1,7,7-trimethylbicyclo[2.2.1]heptan-2-yl)-4,5-dihydro-1H-pyrazole-3-carboxamide] are −2% and −8.4.
On the same counts, the results for `C[C@@H]1C(C(=O)N[C@@H]2CCCC[C@H]2OCc2ccccc2)=NN(c2ccc(Cl)cc2Cl)[C@@H]1c1ccc(Cl)cc1` (mixture of isomers) [Example 437, (−)-cis-N-((1R,2R)-2-(benzyloxy)cyclohexyl)-5-(4-chlorophenyl)-1-(2,4-dichlorophenyl)-4-methyl-4,5-dihydro-1H-pyrazole-3-carboxamide] are 40.9% and 14.7.
On to `CC[C@H]1C(C(=O)O)=NN(c2ccc(Cl)cc2Cl)[C@H]1c1ccc(Cl)cc1` (racemic) [Example 21, cis-5-(4-Chloro-phenyl)-1-(2,4-dichloro-phenyl)-4-ethyl-4,5-dihydro-1H-pyrazole-3-carboxylic acid], for which the Inhibition was found to be 23% (10^−7 M) and 11 (10^−8 M, in %).
On the same counts, the results for `C[C@H]1C(C(=O)O)=NN(c2ccc(Cl)cc2Cl)[C@H]1c1ccc(F)cc1` (racemic) [Example 221, cis-1-(2,4-dichlorophenyl)-5-(4-fluorophenyl)-4-methyl-4,5-dihydro-1H-pyrazole-3-carboxylic acid] are −6.3% and −2.2.
With `COc1ccc([C@H]2[C@@H](C)C(C(=O)O)=NN2c2ccc(Cl)cc2Cl)cc1` (racemic) [Example 261, cis-1-(2,4-dichlorophenyl)-5-(4-methoxyphenyl)-4-methyl-4,5-dihydro-1H-pyrazole-3-carboxylic acid], the Inhibition (10^−7 M) was −6.9% and the Inhibition (10^−8 M, in %) was −5.
On the same counts, the results for `C[C@H]1C(C(=O)O)=NN(c2ccc(Cl)cc2Cl)[C@H]1c1cccs1` (racemic) [Example 367, cis-1-(2,4-dichlorophenyl)-4-methyl-5-(thiophen-2-yl)-4,5-dihydro-1H-pyrazole-3-carboxylic acid] are 11% and 7.2.
As for `C[C@H]1C(C(=O)NN2CCCC2)=NN(c2ccc(Cl)cc2Cl)[C@H]1c1ccc(Cl)cc1` (relative stereo) [Example 7, cis-5-(4-Chloro-phenyl)-1-(2,4-dichloro-phenyl)-4-methyl-4,5-dihydro-1H-pyrazole-3-carboxylic acid pyrrolidin-1-ylamide], the Inhibition came out at 41% (10^−7 M) and 20.7 (10^−8 M, in %).
The like results for `C[C@@H]1C(C(=O)NN2CCN(C3CCCC3)CC2)=NN(c2ccc(Cl)cc2Cl)[C@@H]1c1ccc(Cl)cc1.Cl` (relative stereo) [Example 100, cis-5-(4-chlorophenyl)-N-(4-cyclopentylpiperazin-1-yl)-1-(2,4-dichlorophenyl)-4-methyl-4,5-dihydro-1H-pyrazole-3-carboxamide hydrochloride] were, in that order, 32.6% and 5.4.
As for `C[C@@H]1C(C(=O)NN2CCOCC2)=NN(c2ccc(Cl)cc2Cl)[C@@H]1c1ccc(Cl)cc1` (relative stereo) [Example 101, cis-5-(4-chlorophenyl)-1-(2,4-dichlorophenyl)-4-methyl-N-morpholino-4,5-dihydro-1H-pyrazole-3-carboxamide], the Inhibition reads like this: (10^−7 M) 34.9%; (10^−8 M, in %) 27.7.
On the same counts, the results for `C[C@@H]1C(C(=O)NN2C(=O)c3cccc4cccc(c34)C2=O)=NN(c2ccc(Cl)cc2Cl)[C@@H]1c1ccc(Cl)cc1` (relative stereo) [Example 104, cis-5-(4-Chlorophenyl)-1-(2,4-dichlorophenyl)-4-methyl-4,5-dihydro-1H-pyrazole-3-carboxylic acid (1,3-dioxo-1H,3H-benzo[de]isoquinolin-2-yl)-amide] are 31.7% and −0.4.
In the case of `C[C@@H]1C(C(=O)NN2Cc3cccc4cccc(c34)C2)=NN(c2ccc(Cl)cc2Cl)[C@@H]1c1ccc(Cl)cc1` (relative stereo) [Example 105, cis-5-(4-Chlorophenyl)-1-(2,4-dichlorophenyl)-4-methyl-4,5-dihydro-1H-pyrazole-3-carboxylic acid (1H,3H-benzo[de]isoquinolin-2-yl)-amide], the Inhibition is, setting by setting: (10^−7 M) 31.4%; (10^−8 M, in %) 35.9.
On the same counts, the results for `C[C@@H]1C(C(=O)NCC2CCCCC2)=NN(c2ccc(Cl)cc2Cl)[C@@H]1c1ccc(Cl)cc1` (relative stereo) [Example 114, cis-5-(4-chlorophenyl)-N-(cyclohexylmethyl)-1-(2,4-dichlorophenyl)-4-methyl-4,5-dihydro-1H-pyrazole-3-carboxamide] are 28.3% and −13.
With `C[C@@H]1C(C(=O)NN2CCCCCCC2)=NN(c2ccc(Cl)cc2Cl)[C@@H]1c1ccc(Cl)cc1` (relative stereo) [Example 120, cis-N-(azocan-1-yl)-5-(4-chlorophenyl)-1-(2,4-dichlorophenyl)-4-methyl-4,5-dihydro-1H-pyrazole-3-carboxamide], the Inhibition worked out at 75.5% (10^−7 M) and 37 (10^−8 M, in %).
